Values quoted from earlier work as cited in publication PMC4826315 (Journal of molecular biology, 2016).

Key:
Mdm2 = details: read-out: IC50, inhibition of p53 binding to Mdm2; FP assay
retinoblastoma tumors = details: mouse model system

Which IC50 (Mdm2) does the source give for `COc1ccc(C2=N[C@@H](c3ccc(Cl)cc3)[C@@H](c3ccc(Cl)cc3)N2C(=O)N2CCNC(=O)C2)c(OC(C)C)c1` [Nutlin-3a] here?
Its IC50 is […].

And the “effect on retinoblastoma tumors” value (retinoblastoma tumors)?
The value was “caused regression of retinoblastoma tumors”.
